Experimental data taken from patent US4952408A, “Liposome-encapsulated vinca alkaloids and their use in combatting tumors” (priority 1988, dated 1990).
In brackets after ≈: the same amount, converted by molar mass. Like-named read-outs stand apart in the source and are kept apart here.

Legend:
[1] = plasma pharmacokinetics of free and liposomal vincristine (radioimmunoassay); format: in vivo, CD2 F1 mice
Method: (§1) CD2 F1 mice were administered vincristine as a free drug at a dose of 1 mg kg^-1 and liposomal entrapped vincristine at a dose of 1 mg kg^-1 and 5 mg kg^-1 via a lateral tail vein. At sequential time points, four mice in each treatment group were sacrificed and specific tissues were isolated and assayed for drug levels by radioimmunoassay as adapted in our laboratories.

L1210 Leukemia = assay: antitumor evaluation against L1210 leukemia in mice; format: in vivo, CD2 F1 mice; conditions: for % ILS (percentage of increase in life span) / Long Term Survivors (50 days) / Median Survival: single dose
Method: The L1210 leukemia was maintained by serial passage i.p. in DBA/2F1 female mice. For antitumor studies, 2×10^5 cells of L1210 leukemia were implanted i.p. in CD2 F1 male mice (22-25 g). […] Each drug treated group and saline treated leukemic control group was composed of eight mice. […] Data are expressed as % of ILS (percentage of increase in life span). Median life spans were calculated from grouped median survival times and % of increase in life was calculated as: [formula] Experiments were terminated on day 50. Mice alive on that day were termed "cures" and were included in the calculation of median survival time of treated mice. The saline treated or blank liposomes treated controls had the median survival of 11 days. Free vincristine at a dose of 2 mg kg^-1 provided a median survival of 14.5 days with a % ILS of 32 with 2/8 long-term survivals. […] In contrast, the doses of vincristine entrapped in liposomes provided a much higher therapeutic response in mice bearing L1210 leukemia. […] In addition, higher doses of vincristine administered in liposomes produced significant therapeutic response with majority of leukemia bearing mice surviving at day 50.
CD2 F1 mice were implanted intraperitoneally with 2 ×
10^5 leukemia cells and drug treatment was given intravenously on day

[2] = total doses in excess of 2 mg; cited from earlier work
L1210 Leukemia cells = assay: in vitro cytotoxicity against L1210 leukemia cells (trypan blue exclusion); format: cell-based; conditions: Mus musculus; L1210 murine leukemia cells; 24 h treatment at 37° C., counted at 48 and 72 hours
Method: L1210 Leukemia cells were grown in suspension in air with 5% CO2 in RPMI Medium 1640 supplemented with 10% fetal calf serum and gentamicin (50 μg/ml). Log phase cells (10 ml) at an innoculum of 1×10^5 cells/ml of medium in 25 cm^2 plastic flasks were treated with either free vincristine or liposomal entrapped vincristine at different doses for 24 hours at 37° C. After drug treatment, cells were transferred to Falcon tubes and centrifuged for 10 minutes at 600 rpm. The supernatant media were discarded and the cell pellet was washed 3 times with RPMI Media 1640. The final cell pellet was resuspended in 10 ml of RPMI media and transferred to 25 cm^2 plastic flasks and incubated at 37° C. in air with 5% CO2 for growth. At 48 and 72 hours, an aliquot of cells from each flask were taken and were counted for viability by trypan blue exclusion under microscope. The number of cells proliferating in each flask were determined with respect to control. FIG. 3 represents the percent survival of cells when treated with free vincristine or vincristine entrapped in liposomes.

[3] = lethal toxicity in normal mice after single i.v. injection; format: in vivo, CD2 F1 mice
[4] = tested on: non-Hodgkin's and Hodgkins lymphomas, acute lymphoblastic leukemia, Wilm's tumor, rhabdomyosarcoma, and neuroblastoma; conditions: in vivo; cited from earlier work
[5] = tissue drug levels of free and liposomal vincristine (radioimmunoassay); format: in vivo, CD2 F1 mice; conditions: for concentration at 5 min / concentration at 0.25 h / concentration at 0.5 h / concentration at 1 h / concentration at 2 h / concentration at 4 h / concentration at 8 h / concentration at 24 h: mouse, iv, 1 mg/kg; for concentration at 0.25 h: 15'; for concentration at 0.5 h: 30'
Method: as §1

[6] = brain, brain, 1.0 mg, read-out: vincristine level, brain
[7] = kidney, kidney, 1.0 mg, read-out: vincristine level, kidney
[8] = liver, liver, 1.0 mg, read-out: vincristine level, liver
[9] = lung, lung, 1.0 mg, read-out: vincristine level, lung
[10] = spleen, spleen, 1.0 mg, read-out: vincristine level, spleen

CC[C@]1(O)C[C@H]2CN(CCc3c([nH]c4ccccc34)[C@@](C(=O)OC)(c3cc4c(cc3OC)N(C=O)[C@H]3[C@@](O)(C(=O)OC)[C@H](OC(C)=O)[C@]5(CC)C=CCN6CC[C@]43[C@@H]65)C2)C1 [free vincristine, vincristine]
apparent volume of distribution ([1]; i.v.): apparent large volume of distribution
clearance of drug from plasma ([1]; i.v.): much faster clearance of drug from plasma
concentration at 5 min ([1]; mouse, iv, 1 mg/kg, plasma, 1.0 mg, 5', read-out: plasma level): 630 ng/mL
concentration at 0.25 h ([1]; mouse, iv, 1 mg/kg, plasma, 1.0 mg, 15', read-out: plasma level): 600 ng/mL
concentration at 0.5 h ([1]; mouse, iv, 1 mg/kg, plasma, 1.0 mg, 30', read-out: plasma level): 200 ng/mL
concentration at 1 h ([1]; mouse, iv, 1 mg/kg, plasma, 1.0 mg, 1h, read-out: plasma level): 100 ng/mL
concentration at 2 h ([1]; mouse, iv, 1 mg/kg, plasma, 1.0 mg, 2h, read-out: plasma level): 50 ng/mL
Cmax at 5 min ([1]; mouse, plasma, iv, 1 mg kg^-1 i.v., 5 minutes, read-out: peak plasma level at 5 minutes): 620 ng/mL
% ILS (percentage of increase in life span) (L1210 Leukemia; 2.0 mg/kg i.v.): 32%
Long Term Survivors (50 days) (L1210 Leukemia; 2.0 mg/kg i.v.): 2/8
Median Survival (L1210 Leukemia; 2.0 mg/kg i.v.): 14.5 days
death of tumor bearing mice (drug toxicity) (L1210 Leukemia; 3 mg kg^-1 i.v.): All the animals in this group were dead by day 10
% ILS (percentage of increase in life span) (L1210 Leukemia; 3.0 mg/kg i.v.): -32%
Long Term Survivors (50 days) (L1210 Leukemia; 3.0 mg/kg i.v.): 0/8
Median Survival (L1210 Leukemia; 3.0 mg/kg i.v.): 7.5 days
neurotoxicity [2]: often associated with a progressive and disabling neurotoxicity
IC50 (L1210 Leukemia cells): 4 ng/mL (≈ 4.85 nM)
lethality ([3]; 2 mg kg^-1 i.v., to day 60): without any lethality
mortality at 192 h ([3]; mouse, in vivo, iv, 3 mg kg^-1 i.v., read-out: mice dead by day 8): 90%
antitumor activity [4]: substantial activity
levels of drug in brain, free compared with liposomal vincristine ([5]; brain, 1 or 5 mg kg^-1 liposomal): higher than liposomal vincristine
drug level in liver ([5]; liver, 1 mg kg^-1, 8 hours): undetectable
levels in lung, free compared with liposomal vincristine ([5]; lung, 1 mg kg^-1, different periods): comparable
concentration at 5 min [5, 6]: 28 ng/g
concentration at 0.25 h [5, 6]: 21 ng/g
concentration at 0.5 h [5, 6]: 20 ng/g
concentration at 1 h [5, 6]: 21 ng/g
concentration at 2 h ([5]; brain, brain, 1.0 mg, 2h, read-out: vincristine level, brain): 21 ng/g
concentration at 4 h [5, 6]: 29 ng/g
concentration at 8 h [5, 6]: 29 ng/g
concentration at 24 h [5, 6]: 19 ng/g
concentration at 5 min [5, 7]: 65 ng/g
concentration at 0.25 h [5, 7]: 64 ng/g
concentration at 0.5 h [5, 7]: 62 ng/g
concentration at 1 h [5, 7]: 47 ng/g
concentration at 2 h ([5]; kidney, kidney, 1.0 mg, 2h, read-out: vincristine level, kidney): 47 ng/g
concentration at 4 h [5, 7]: 20 ng/g
concentration at 8 h [5, 7]: 18 ng/g
concentration at 24 h [5, 7]: 2 ng/g
concentration at 2 h ([5]; liver, liver, 1 mg kg^-1, 2 hours, read-out: drug level in liver): 50 ng/g
concentration at 5 min [5, 8]: 200 ng/g
concentration at 0.25 h [5, 8]: 161 ng/g
concentration at 0.5 h [5, 8]: 121 ng/g
concentration at 1 h [5, 8]: 84 ng/g
concentration at 2 h ([5]; liver, liver, 1.0 mg, 2h, read-out: vincristine level, liver): 47 ng/g
concentration at 4 h [5, 8]: 10 ng/g
concentration at 5 min [5, 9]: 80 ng/g
concentration at 0.25 h [5, 9]: 78 ng/g
concentration at 0.5 h [5, 9]: 80 ng/g
concentration at 1 h [5, 9]: 75 ng/g
concentration at 2 h ([5]; lung, lung, 1.0 mg, 2h, read-out: vincristine level, lung): 77 ng/g
concentration at 4 h [5, 9]: 64 ng/g
concentration at 8 h [5, 9]: 58 ng/g
concentration at 24 h [5, 9]: 4 ng/g
concentration at 5 min [5, 10]: 83 ng/g
concentration at 0.25 h [5, 10]: 84 ng/g
concentration at 0.5 h [5, 10]: 72 ng/g
concentration at 1 h [5, 10]: 86 ng/g
concentration at 2 h ([5]; spleen, spleen, 1.0 mg, 2h, read-out: vincristine level, spleen): 112 ng/g
concentration at 4 h [5, 10]: 112 ng/g
concentration at 8 h [5, 10]: 61 ng/g
concentration at 24 h [5, 10]: 43 ng/g
